Reference: patent US12029804B2, “Peptide for promoting mucous membrane permeation and composition containing same” (SOONCHUNHYANG UNIVERSITY INDUSTRY ACADEMY COOPERATION …, priority 2018, dated 2024)
Read-outs that look alike come from different tables or passages of the source. Bridge positions count the residues as written; N and C are the ends. Square brackets hold non-standard residues; d marks the D form. Ends that are not written are not given here. Peptide text beside a SMILES is read from it. I, II: the chains in the order shown. ξ: configuration not given here. Dap(N3) = [N-]=[N+]=NC[C@H](N)C(=O)O; ξDap(N3) = [N-]=[N+]=NCC(N)C(=O)O

How the values were obtained:
in vivo = conditions: rat, in vivo
Protocol: (§1) For a control group, a 0.5% (w/v) levan aqueous solution including doxorubicin without the peptide was prepared.
(§2) At this time, the dosage of peptide-containing drug was 10 mg/kg for each group.
(§3) Before drug administration, the rat was anesthetized and cannulated into the femoral veno-artery using PE-50. An abdominal cavity was opened and the test substance was administered to an upper duodenum of the small intestine.
(§4) After administration of the solution through a cannula inserted into the femoral vein of the rat, each 250 μl of blood was collected at 5, 10, 20, 40, 60, 120, 180 and 240 minutes and saline was supplemented via the femoral artery. The collected blood was centrifuged at 13,000 rpm for 10 minutes so as to obtain 100 μl of plasma. After adding 200 μl of methanol to the obtained plasma, the resulting solution was subjected into vortex, and then centrifuged again at 13,000 rpm for 10 minutes to carry out deproteinization, and the supernatant was quantitatively analyzed by HPLC-Fluorescence.

nasal mucous membrane = conditions: rat, intranasal; for AUC0-360min of fexofenadine, times higher than the group dosed with fexofenadine alone: fexofenadine with peptide (text on Table 1)
Protocol: Male Sprague-Dawley (SD) rats (280-300 g) were acclimated for a minimum of two days in individual cages in a laboratory animal room. At this time, the rats were allowed to freely consume food and water before an experiment, provided with light for 12 hours, and maintained in the dark state for 12 hours. One day before the experiment, the animals were provided only with water and fasted.
The rats prepared in above 1 were divided into each group of three to five rats so as to prepare a total of nine groups, after which each of the test substances prepared was intranasally administered into the group. At this time, the dosage of each drug was 1.0, 2.5 or 5.0 mg/kg per rat.
Before intranasal administration, the rat was anesthetized and cannulated into the femoral veno-artery using PE-50. The solution was carefully administered to the nostril of the rat using a micropipette (Eppendof) so as not to affect the nasal mucous membrane. At this time, the rat's body was laid on the floor and the head was placed while leaning against the wall.
The collected blood was centrifuged at 13,000 rpm for 10 minutes so as to obtain 100 μl of plasma. After adding 200 μl of methanol to the obtained plasma, the resulting solution was subjected into vortex, and then centrifuged again at 13,000 rpm for 10 minutes to carry out deproteinization, and the supernatant was quantitatively analyzed by HPLC-MS.

[1] = test system: intestinal mucous membrane; assay: Intestinal (duodenum) administration of doxorubicin with peptide or peptide dimer in rats, doxorubicin blood concentration; conditions: rat, duodenum, peptide 10 mg/kg vs doxorubicin only
Protocol: as §1, §2, §3, §4

[2] = rat, plasma, 10 mg/kg
Protocol: as §3
as §4, with “HPLC-MS.” for “HPLC-Fluorescence.”

[3] = test system: intestinal mucous membrane; conditions: rat, duodenum
Protocol: as §3
as §4, with “HPLC-MS.” for “HPLC-Fluorescence.”

Caco-2 monolayer = assay: Drug permeability through the Caco-2 monolayer with peptide; conditions: peptide 5 mM, all drugs of Table 3
in vitro = conditions: human, Caco-2
[4] = fexofenadine with peptide vs fexofenadine alone

## COc1cccc2c1C(=O)c1c(O)c3c(c(O)c1C2=O)C[C@@](O)(C(=O)CO)C[C@@H]3O[C@H]1C[C@H](N)[C@H](O)[C@H](C)O1 [Doxorubicin, doxorubicin, reference compound]
In vivo; male, Sprague-Dawley
  AUC(0-t): 76.2 ng·h/mL

## CC[C@H](C)[C@H](NC(=O)C(CN=[N+]=[N-])NC(=O)[C@H](N)Cc1ccccc1)C(=O)NCC(=O)N[C@@H](CCCNC(=N)N)C(=O)N[C@@H](CC(C)C)C(N)=O (stereo partly drawn) [Example 1, FX1IGRL-NH2(X1=Dap(N3))] (H-[dF][ξDap(N3)]IGRL-NH2)
Nasal mucous membrane; [4]
  Fexofenadine AUC0-240 min, fold of control group: (1.92-fold)
  Fexofenadine Cmax, fold of control group: 3 fold
  Fexofenadine Tmax, fold of control group: (0.57-fold)
Nasal mucous membrane; fexofenadine with peptide vs fexofenadine alone, listed as H-FX1IGRL-NH2
  Fexofenadine Cmax, fold of control group: (2.90-fold)
Nasal mucous membrane; peptide 1 mg/kg
  Fexofenadine AUC0-240 min, fold of control group: (1.64-fold)
  Fexofenadine Cmax, fold of control group: 2 fold
  Fexofenadine Tmax, fold of control group: (0.57-fold)
Nasal mucous membrane; peptide 1 mg/kg, listed as H-FX1IGRL-NH2
  Fexofenadine Cmax, fold of control group: (2.01-fold)
Nasal mucous membrane; peptide 5 mg/kg
  Fexofenadine AUC0-240 min, fold of control group: (2.48-fold)
  Fexofenadine Cmax, fold of control group: 4 fold
  Fexofenadine Tmax, fold of control group: (0.43-fold)
Nasal mucous membrane; peptide 5 mg/kg, listed as H-FX1IGRL-NH2
  Fexofenadine Cmax, fold of control group: (4.05-fold)
Nasal mucous membrane; peptide […]
  Fexofenadine Tmax, fold of control group: (0.57-fold)
[1]
  Doxorubicin AUC0-240 min, fold of control: (1.81-fold)

## CC[C@@H](C)[C@@H](NC(=O)[C@@H](CSSC[C@H](NC(=O)[C@H](N)Cc1ccccc1)C(=O)N[C@H](C(=O)NCC(=O)N[C@@H](CCCNC(=N)N)C(=O)N[C@@H](CC(C)C)C(N)=O)[C@@H](C)CC)NC(=O)[C@@H](N)Cc1ccccc1)C(=O)NCC(=O)N[C@H](CCCNC(=N)N)C(=O)N[C@H](CC(C)C)C(N)=O [Example 3, FCIGRL-NH2 Dimer] (I: H-F[dC][dI]G[dR][dL]-NH2 / II: H-[dF]CIGRL-NH2; disulfide I:2-II:2)
Nasal mucous membrane
  AUC0-360min of fexofenadine, times higher than the group dosed with fexofenadine alone: 5.3 times
Nasal mucous membrane; [4]
  Fexofenadine AUC0-240 min, fold of control group: (5.30-fold)
  Fexofenadine Cmax, fold of control group: 9.7 fold
  Fexofenadine Tmax, fold of control group: (0.38-fold)
Nasal mucous membrane; fexofenadine with peptide vs fexofenadine alone, listed as H-FCIGRL-NH2 (Dimer)
  Fexofenadine Cmax, fold of control group: (9.76-fold)
[2]
  AUC(0-t): 343 ng·h/mL
[3]; 5 mg/kg of peptide dimer vs exenadine alone, 5 mg/kg
  Exenadine AUC0-240 min, fold of control: about 2.17 fold
[3]; 5 mg/kg of peptide dimer vs exenadine alone, listed as H-FCIGRL-NH2 (Dimer), 5 mg/kg
  Exenadine AUC0-240 min, fold of control: 3.88(2.17-fold)
[3]; 10 mg/kg of peptide dimer vs exenadine alone, 10 mg/kg
  Exenadine AUC0-240 min, fold of control: ~4.57 fold
[3]; 10 mg/kg of peptide dimer vs exenadine alone, listed as H-FCIGRL-NH2 (Dimer), 10 mg/kg
  Exenadine AUC0-240 min, fold of control: 6.32 (4.57-fold)
Caco-2 monolayer
  increase rate of Papp (cm/sec) of each drug, effect of promoting mucous membrane permeation: at least seven times higher
In vivo; 10 mg/kg
  AUC(0-t): 174 ng·h/mL
[1]
  Doxorubicin AUC0-240 min, fold of control: (2.29-fold)

## CC[C@H](C)[C@H](NC(=O)[C@H](CSSC[C@H](NC(=O)[C@@H](N)Cc1ccccc1)C(=O)N[C@H](C(=O)NCC(=O)N[C@@H](CCCNC(=N)N)C(=O)N[C@@H](CC(C)C)C(=O)O)[C@@H](C)CC)NC(=O)[C@@H](N)Cc1ccccc1)C(=O)NCC(=O)N[C@@H](CCCNC(=N)N)C(=O)N[C@@H](CC(C)C)C(=O)O [Example 4, FCIGRL-OH Dimer] (I: H-FCIGRL-OH / II: H-FCIGRL-OH; disulfide I:2-II:2)
Nasal mucous membrane
  AUC0-360min of fexofenadine, times higher than the group dosed with fexofenadine alone: 3.6 times
Nasal mucous membrane; [4]
  Fexofenadine AUC0-240 min, fold of control group: (3.64-fold)
  Fexofenadine Cmax, fold of control group: 6 fold
  Fexofenadine Tmax, fold of control group: (0.41-fold)
Nasal mucous membrane; fexofenadine with peptide vs fexofenadine alone, listed as H-FCIGRL-OH (Dimer)
  Fexofenadine Cmax, fold of control group: (6.06-fold)

## CC[C@H](C)[C@H](NC(=O)[C@H](CSSC[C@H](NC(=O)[C@H](Cc1ccccc1)NC(=O)[C@@H](N)CN=[N+]=[N-])C(=O)N[C@H](C(=O)NCC(=O)N[C@@H](CCCNC(=N)N)C(=O)N[C@@H](CC(C)C)C(N)=O)[C@@H](C)CC)NC(=O)[C@H](Cc1ccccc1)NC(=O)[C@@H](N)CN=[N+]=[N-])C(=O)NCC(=O)N[C@@H](CCCNC(=N)N)C(=O)N[C@@H](CC(C)C)C(N)=O [Example 5, X1FCIGRL-NH2 Dimer] (I: H-[Dap(N3)]FCIGRL-NH2 / II: H-[Dap(N3)]FCIGRL-NH2; disulfide I:3-II:3)
[1]
  Doxorubicin AUC0-240 min, fold of control: (1.77-fold)

## COCCc1ccc(OCC(O)CNC(C)C)cc1 (stereo not drawn) [metoprolol]
In vitro
  Papp: 38.9 ×10⁻⁶ cm/s

## FCIGRL [Preparation Example 2, FCIGRL, reference compound]
Nasal mucous membrane; [4]
  Fexofenadine AUC0-240 min, fold of control group: (1.53-fold)
  Fexofenadine Cmax, fold of control group: (1.16-fold)
  Fexofenadine Tmax, fold of control group: (1.52-fold)

## FCIGRL-NH2 [Preparation Example 1, FCIGRL-NH2, reference compound]
Nasal mucous membrane; [4]
  Fexofenadine AUC0-240 min, fold of control group: (1.70-fold)
  Fexofenadine Cmax, fold of control group: (1.45-fold)
  Fexofenadine Tmax, fold of control group: (1.14-fold)
[1]
  Doxorubicin AUC0-240 min, fold of control: (1.49-fold)

## FKIGRL [Preparation Example 4, FKIGRL, reference compound]
Nasal mucous membrane; [4]
  Fexofenadine AUC0-240 min, fold of control group: (1.09-fold)
  Fexofenadine Cmax, fold of control group: (0.71-fold)
  Fexofenadine Tmax, fold of control group: (1.14-fold)

## FRIGRL [Preparation Example 3, FRIGRL, reference compound]
Nasal mucous membrane; [4]
  Fexofenadine AUC0-240 min, fold of control group: (1.39-fold)
  Fexofenadine Cmax, fold of control group: (0.73-fold)
  Fexofenadine Tmax, fold of control group: (1.71-fold)
